The values below come from patent publication US8765730B2 (Hoffmann-La Roche Inc, priority 2010, dated 2014).

What is called EC50 is the concentration needed to bring the measured effect to its halfway point.

For the first assay, the target named is T1, human GPBAR1 receptor (Homo sapiens, UniProt Q8TDU6).
T1 construct: expressed in transfected cells
T1 sequence (Q8TDU6 1-330): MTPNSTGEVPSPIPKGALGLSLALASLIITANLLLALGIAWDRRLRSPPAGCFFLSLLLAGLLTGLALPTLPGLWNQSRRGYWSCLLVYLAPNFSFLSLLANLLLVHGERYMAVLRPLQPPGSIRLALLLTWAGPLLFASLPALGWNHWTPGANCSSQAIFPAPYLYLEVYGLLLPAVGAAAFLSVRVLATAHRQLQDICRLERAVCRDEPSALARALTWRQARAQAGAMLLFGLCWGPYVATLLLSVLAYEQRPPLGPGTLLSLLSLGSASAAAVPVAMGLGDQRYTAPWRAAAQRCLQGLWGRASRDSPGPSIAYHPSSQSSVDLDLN
Kind of assay: functional cAMP assay in CHO-dhfr(minus) cells expressing human GPBAR1 receptors. Type of assay: cell-based. The conditions noted are these: functional cAMP assay, 30 min at 30° C., read-out: human EC50. Put shortly:
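Agonist cAMP read-out: stable GPBAR1 CHO-dhfr− clone, 30 min compound exposure at 30° C following 30 min IBMX (1 mM) preincubation in Krebs Ringer bicarbonate. Time-resolved energy-transfer detection gives EC50; parental CHO cells serve as counter-screen.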
Turning to `CS(=O)(=O)c1cccc(-c2ccc(C(C/C(=N\O)c3ccncc3)c3ccccc3)cc2)c1` (stereo not drawn) [Example 19, (E)-3-(3′-Methanesulfonyl-biphenyl-4-yl)-3-phenyl-1-pyridin-4-yl-propan-1-one oxime], the EC50 amounted to 355 nM.

The same assay, now with this note: human EC50, functional cAMP assay, 30 min at 30° C.
For the molecule `Cn1cc(/C(CC(c2ccc(Br)cc2)c2ccc(F)cc2F)=N/O)ccc1=O` (stereo not drawn) [Example 402, 5-{3-(4-Bromo-phenyl)-3-(2,4-difluoro-phenyl)-1-[(E)-hydroxyimino]-propyl}-1-methyl-1H-pyridin-2-one], the EC50 is 6 nM. `Cc1cc(C(=O)O)ccc1-c1ccc(C(C/C(=N\O)c2ccc(=O)n(C)c2)c2ccc(Cl)cc2Cl)cc1` (racemic) [Example 476, 4′-[1-(2,4-Dichloro-phenyl)-3-[(E)-hydroxyimino]-3-(1-methyl-6-oxo-1,6-dihydro-pyridin-3-yl)-propyl]-2-methyl-biphenyl-4-carboxylic acid] gave an EC50 of 49 nM.

As to `COC(=O)CNC(=O)c1ccc(-c2ccc(C(C/C(=N\O)c3ccc(=O)n(C)c3)c3ccc(Cl)cc3C)cc2)cc1` (single isomer, unassigned; (-)) [Example 253, (−)-({4′-[1-(4-Chloro-2-methyl-phenyl)-3-[(E)-hydroxyimino]-3-(1-methyl-6-oxo-1,6-dihydro-pyridin-3-yl)-propyl]-biphenyl-4-carbonyl}-amino)-acetic acid methyl ester], the EC50 was 140 nM.

`Cc1ccc(-c2ccc(C(C/C(=N\O)c3ccncc3)c3ccccc3)cc2)cn1` (stereo not drawn) [Example 25, (E)-3-[4-(6-Methyl-pyridin-3-yl)-phenyl]-3-phenyl-1-pyridin-4-yl-propan-1-one oxime] registered an EC50 of 356 nM. Molecule `Cc1cc(/C(C[C@H](c2ccc(C3=CC(=O)NCC3)cc2)c2ccccc2C)=N/O)ccn1` [Example 377, (R,E)-4-(4-(3-(Hydroxyimino)-3-(2-methylpyridin-4-yl)-1-o-tolylpropyl)phenyl)-5,6-dihydropyridin-2(1H)-one] yielded a concentration giving a half-maximal response (EC50) of 12 nM. Still for that read-out and setting: with `Cc1cc(Cl)ccc1C(C/C(=N\O)c1ccc(=O)n(CCC(=O)O)c1)c1ccc(S(C)(=O)=O)cc1` (stereo not drawn) [Example 345, (E)-3-(5-(3-(4-Chloro-2-methylphenyl)-1-(hydroxyimino)-3-(4-(methylsulfonyl)phenyl)-propyl)-2-oxopyridin-1(2H)-yl)propanoic acid] the figure was over 10000 nM.

In the case of `Cc1cc(C(CC(c2cccc(CCCO)c2)c2ccccc2C)=NO)ccn1` (racemic) [Example 107, 3-[3-(3-Hydroxy-propyl)-phenyl]-1-(2-methyl-pyridin-4-yl)-3-o-tolyl-propan-1-one oxime], the EC50 worked out at 153 nM. `Cn1cc(/C(CC(c2ccc(S(C)(=O)=O)cc2)c2ccccc2Cl)=N/O)ccc1=O` (stereo not drawn) [Example 249, (E)-5-(3-(2-Chlorophenyl)-1-(hydroxyimino)-3-(4-(methylsulfonyl)phenyl)propyl)-1-methylpyridin-2(1H)-one] displayed an EC50 of 30 nM. On the same count and under the same terms, with `Cn1cc(/C(CC(c2ccc(Br)cc2)C2CCC2)=N/O)ccc1=O` (stereo not drawn) [Example 179, 5-{3-(4-Bromo-phenyl)-3-cyclobutyl-1-[(E)-hydroxyimino]-propyl}-1-methyl-1H-pyridin-2-one] the figure was 165 nM; with `Cc1cc(Cl)ccc1C(C/C(=N\O)c1ccc(=O)n(C)c1)c1ccc(-c2ccc(C(=O)NCC(=O)O)cc2)cc1` (single isomer, unassigned; (-)) [Example 255, (−)-({4′-[1-(4-Chloro-2-methyl-phenyl)-3-[(E)-hydroxyimino]-3-(1-methyl-6-oxo-1,6-dihydro-pyridin-3-yl)-propyl]-biphenyl-4-carbonyl}-amino)-acetic acid], 30 nM; with `Cc1cc(/C(CC(c2ccc(-c3c[nH]c(=O)[nH]c3=O)cc2)c2ccc(Cl)cc2F)=N/O)ccn1` (stereo not drawn) [Example 458, 5-{4-[1-(4-Chloro-2-fluoro-phenyl)-3-[(E)-hydroxyimino]-3-(2-methyl-pyridin-4-yl)-propyl]-phenyl}-1H-pyrimidine-2,4-dione], 22 nM. Molecule `CCN(CC)c1ccc(C(CC(=NO)c2ccncc2)c2ccccc2C)cc1` (racemic) [Example 42, 3-(4-Diethylamino-phenyl)-1-pyridin-4-yl-3-o-tolyl-propan-1-one oxime] showed a concentration for a half-maximal effect (EC50) of 156 nM. `Cc1[nH]c2ccccc2c1C(CC(=NO)c1ccncc1)c1ccc(N(C)C)cc1` (racemic) [Example 63, 3-(4-Dimethylamino-phenyl)-3-(2-methyl-1H-indol-3-yl)-1-pyridin-4-yl-propan-1-one oxime] yielded an EC50 of 2730 nM. Still for that read-out and setting: under `Cc1cc(/C(C[C@H](c2ccc(N3CCS(=O)(=O)CC3)cc2)c2ccccc2C)=N/O)ccn1` [Example 271, (E,R)-3-[4-(1,1-Dioxo-1λ6-thiomorpholin-4-yl)-phenyl]-1-(2-methyl-pyridin-4-yl)-3-o-tolyl-propan-1-one oxime] stands 11 nM; under `Cn1cc(/C(CC(c2ccc(O)cc2)c2ccc(Cl)cc2F)=N/O)ccc1=O` (stereo not drawn) [Example 318, (E)-5-(3-(4-Chloro-2-fluorophenyl)-1-(hydroxyimino)-3-(4-hydroxyphenyl)propyl)-1-methylpyridin-2(1H)-one], 193 nM; under `Cc1cc(C(C[C@@H](c2ccc(-c3ccc(C(=O)N[C@H](C)c4ccccc4)cc3)cc2)c2ccccc2C)=NO)ccn1` (racemic) [Example 97, 4′-[(S)-3-[Hydroxyimino]-3-(2-methyl-pyridin-4-yl)-1-o-tolyl-propyl]-biphenyl-4-carboxylic acid ((R)-1-phenyl-ethyl)-amide], 177 nM. The same measure, in the same setting: with `Cc1cc(C(CC(c2ccc(-c3ccc(C(=O)O)cc3F)cc2)c2ccccc2C)=NO)ccn1` (racemic) [Example 82, 2-Fluoro-4′-[3-[hydroxyimino]-3-(2-methyl-pyridin-4-yl)-1-o-tolyl-propyl]-biphenyl-4-carboxylic acid] the figure was 43 nM. Same read-out and setting: with `CCCCC(C/C(=N\O)c1ccc(=O)n(C)c1)c1ccc(Br)cc1` (stereo not drawn) [Example 177, 5-{3-(4-Bromo-phenyl)-1-[(E)-hydroxyimino]-heptyl}-1-methyl-1H-pyridin-2-one] the figure was 256 nM. Take `Cc1cc(/C(C[C@H](c2ccc(N3CCCC3=O)cc2)c2ccccc2C)=N/O)ccn1` [Example 299, 1-{4-[(R)-3-[(E)-Hydroxyimino]-3-(2-methyl-pyridin-4-yl)-1-o-tolyl-propyl]-phenyl}-pyrrolidin-2-one]: the response was half-maximal at 28 nM (EC50). Still for that read-out and setting: under `Cc1cc(/C(C[C@H](c2ccc(N3CC4(CSC4)C3)cc2)c2ccccc2C)=N/O)ccn1` [Example 371, (3R,E)-3-(4-(2-thia-6-azaspiro[3.3]heptan-6-yl)phenyl)-1-(2-methylpyridin-4-yl)-3-o-tolylpropan-1-one oxime] stands 24 nM; under `COC(=O)c1ccc(-c2ccc(C(CC(=NO)c3ccnc(C)c3)c3ccccc3C)cc2)c(F)c1` (racemic) [Example 81, 2-Fluoro-4′-[3-[hydroxyimino]-3-(2-methyl-pyridin-4-yl)-1-o-tolyl-propyl]-biphenyl-4-carboxylic acid methyl ester], 295 nM; under `Cc1ccccc1[C@H](C/C(=N\O)c1ccnc(C(F)(F)F)c1)c1ccc(-c2ccc(C(=O)O)cc2)cc1` [Example 291, 4′-[(R)-3-[(E)-Hydroxyimino]-1-o-tolyl-3-(2-trifluoromethyl-pyridin-4-yl)-propyl]-biphenyl-4-carboxylic acid], 365 nM. On the same count and under the same terms, under `Cc1cc(C(CC(c2ccc(C#CCO)cc2)c2ccccc2C)=NO)ccn1` (racemic) [Example 85, 3-[4-(3-Hydroxy-prop-1-ynyl)-phenyl]-1-(2-methyl-pyridin-4-yl)-3-o-tolyl-propan-1-one oxime] stands 1 nM; under `O=C(O)c1ccc(-c2ccc(C(C/C(=N\O)c3ccncc3)c3ccccc3)cc2)cc1` (stereo not drawn) [Example 77, 4′-{3-[(E)-Hydroxyimino]-1-phenyl-3-pyridin-4-yl-propyl}-biphenyl-4-carboxylic acid], 269 nM; under `Cc1ccccc1[C@H](C/C(=N\O)c1ccc(=O)n(C)c1)c1ccc(C2CCN(S(C)(=O)=O)CC2)cc1` [Example 509, (R,E)-5-(1-(Hydroxyimino)-3-(4-(1-(methylsulfonyl)piperidin-4-yl)phenyl)-3-o-tolylpropyl)-1-methylpyridin-2(1H)-one], 99 nM. Turning to `Cc1cc(/C(C[C@H](c2ccc(S(C)(=O)=O)cc2)c2ccc(Cl)cc2C)=N/O)ccn1` [Example 359, (R)-3-(4-Chloro-2-methyl-phenyl)-3-(4-methanesulfonyl-phenyl)-1-(2-methyl-pyridin-4-yl)-propan-1-one oxime], the midpoint of the response, the EC50, lay at 26 nM.

`Cc1cc(F)ccc1C(C/C(=N\O)c1ccc(=O)n(C)c1)c1ccc(Br)cc1` (stereo not drawn) [Example 224, (E)-5-(3-(4-Bromophenyl)-3-(4-fluoro-2-methylphenyl)-1-(hydroxyimino)propyl)-1-methylpyridin-2(1H)-one] yielded an EC50 of 6 nM.

Take `Cc1cc(/C(C[C@@H](c2ccc(N3CCC(C(=O)O)CC3)cc2)c2ccc(Cl)cc2C)=N/O)ccn1` [Example 285, 1-{4-[(S)-1-(4-Chloro-2-methyl-phenyl)-3-[(E)-hydroxyimino]-3-(2-methyl-pyridin-4-yl)-propyl]-phenyl}-piperidine-4-carboxylic acid]: the EC50 amounted to 4 nM. For the molecule `CCS(=O)(=O)c1ccc(-c2ccc(C(C/C(=N\O)c3ccncc3)c3ccccc3)cc2)cc1` (stereo not drawn) [Example 26, (E)-3-(4′-Ethanesulfonyl-biphenyl-4-yl)-3-phenyl-1-pyridin-4-yl-propan-1-one oxime], a half-maximal effect (EC50) was put at 108 nM.
